The source of these data is patent US6060604A, “Pharmaceutical compounds comprising polyamines substituted with electron-affinic groups” (priority 1996, dated 2000).

Series [1] concerns mice. To be noted: reported value for metro; cited from earlier work.
Series [2] deals with viral infections; cutaneous inflammation; eye disorders. To be noted: cited from earlier work.
Series [3] relates to hypoxic CHO cells. Description: radiosensitizing hypoxic CHO cells, drugs given 2 hours at 4° C. The class given is cell-based, Chinese hamster.
Series [4] deals with Chinese hamster ovary (CHO) cells. Description: in vitro radiosensitization of hypoxic CHO cells, colony formation (Table 1). The series is classed as cell-based. Conditions: drug dose 0.5 mM. The protocol:
Cells were plated and allowed to attach on glass petri dishes for 3 h, then the media was replaced with 5 ml of Hank's balanced salt solution (HBSS) with or without drugs. To induce cell hypoxia, the dishes were placed at room temperature into sealed aluminum chambers (8 dishes/chamber). […] This procedure was repeated 4 times with 5 min holding periods under positive gas pressure between evacuations. After 1 h, when the cells were severely hypoxic, the chambers were placed in 37° C. water bath for 1 hr. For oxic treatment groups, cells were placed in 37° C. incubators for 2 h with 5 ml of HBSS (±drugs). The chambers were placed on a rotating table and exposed to an X-ray beam generated by a General Electric Maxitron 300 therapy machine operated at 250 kVp and 20 mA (HVL 20 mm Al filter; dose rate at 2 Gy/min). After irradiation, cells were rinsed with HBSS, and covered with fresh media. Cells were cultured for 7 days in a 37° C. incubator. The resulting cell colonies were stained and counted.

Series [5] is described as follows: in vivo. Conditions: mouse, po.
For series [6] the following is noted: cited from earlier work.
In series [7] the test system is CHO cells. Description: radiosensitization potency on hypoxic CHO cells at 20% survival, single X ray dose 8 Gy (Table 2). To be noted: Cricetulus griseus, CHO; hypoxic, single X ray dose of 8 Gy; read-out: drug molarity required to reduce cell survival to 20% of the untreated control value. The series is classed as cell-based, Chinese hamster. As for the experimental part:
Cells were plated and allowed to attach on glass petri dishes for 3 h, then the media was replaced with 5 ml of Hank's balanced salt solution (HBSS) with or without drugs. To induce cell hypoxia, the dishes were placed at room temperature into sealed aluminum chambers (8 dishes/chamber). The chambers were degassed by pumping, and then back-filled with 95% N2 and 5% CO2. This procedure was repeated 4 times with 5 min holding periods under positive gas pressure between evacuations. After 1 h, when the cells were severely hypoxic, the chambers were placed in 37° C. water bath for 1 hr. For oxic treatment groups, cells were placed in 37° C. incubators for 2 h with 5 ml of HBSS (±drugs). The chambers were placed on a rotating table and exposed to an X-ray beam generated by a General Electric Maxitron 300 therapy machine operated at 250 kVp and 20 mA (HVL 20 mm Al filter; dose rate at 2 Gy/min). After irradiation, cells were rinsed with HBSS, and covered with fresh media. Cells were cultured for 7 days in a 37° C. incubator. The resulting cell colonies were stained and counted.
In the experiment shown in Table 2 hypoxic CHO cells were irradiated with a single X ray dose of 8 Gy, with or without drugs.

The nature of series [8]: in vitro toxicity on hypoxic CHO cells, colony formation. The class given is cell-based, Chinese hamster. Conditions: hamster, cho cells, 10 mM, 12 hours at 37° C., read-out: reduction in colony formation. As for the experimental part:
Subsequently, hypoxic CHO cells were incubated with 0.2 mM DATM or 10 mM metro for 12 hours at 37° C.

What is called LD50 is the dose expected to kill half of the subjects tested.

Each structure is given as a SMILES string.

In the case of `Cc1ncc([N+](=O)[O-])n1CCO` [metronidazole, 1-(2-hydroxyethyl)-2-methyl-5-nitroimidazole], the median lethal dose (LD50) entry in series [1] is “about 3.3 g/kg”. Also, in series [2], the “treatment of cutaneous inflammation due to dermatosis such as eczema, ulcers, acne, and rosacea” value is recorded as “effective”; the “treatment of eye disorders such as blepharoconjunctivitis and meibomian gland dysfunctions” value is given as “effective”; the “treatment of viral infections such as measles, herpes, and viral diverticulitis” value is “effective”. In addition, in series [3], the “radiosensitizing effectiveness, 0.2 mM DATM vs 10 mM metro” value is on record as “equally effective”. Further, the Do in series [4] was determined as 3.3 Gy. In addition, the LD50 in series [5] was ~4000 mg/kg. Further, the “toxicity at therapeutic levels” value in series [6] (as radiosensitizers) was “highly toxic at therapeutic levels”. The photosensitization entry in series [6] (dermatological use) was “photosensitizer”. Moreover, in series [7], the IC80 came to 10 mM. In addition, the cytotoxicity at 12 h, 10000 µM in series [8] came to 95%.
